From BigSolDB 2.1

ClCc1ccc(Cl)nc1
Settings | solubility (mole fraction)
in acetone, 278.85 K | 0.0226
in acetone, 281.75 K | 0.0249
in acetone, 283.55 K | 0.0267
in acetone, 284.65 K | 0.0278
in acetone, 288.95 K | 0.0325
in acetone, 291.15 K | 0.0353
in acetone, 293.65 K | 0.0385
in acetone, 295.85 K | 0.0415
in acetone, 297.65 K | 0.0442
in acetone, 300.35 K | 0.0486
in acetone, 302.95 K | 0.0528
in acetone, 304.85 K | 0.0566
in acetone, 307.05 K | 0.0604
in chloroform, 275.85 K | 0.0164
in chloroform, 279.35 K | 0.0204
in chloroform, 281.55 K | 0.0235
in chloroform, 284.35 K | 0.028
in chloroform, 287.45 K | 0.0339
in chloroform, 290.35 K | 0.0405
in chloroform, 292.95 K | 0.0473
in chloroform, 295.25 K | 0.0546
in chloroform, 297.65 K | 0.063
in chloroform, 298.55 K | 0.0665
in chloroform, 300.45 K | 0.0745
in chloroform, 302.75 K | 0.0858
in chloroform, 306.95 K | 0.109
in ethanol, 277.65 K | 0.00332
in ethanol, 279.75 K | 0.00365
in ethanol, 282.05 K | 0.00406
in ethanol, 284.75 K | 0.00456
in ethanol, 287.35 K | 0.00521
in ethanol, 289.65 K | 0.00576
in ethanol, 292.65 K | 0.00661
in ethanol, 295.35 K | 0.00749
in ethanol, 298.35 K | 0.00859
in ethanol, 301.85 K | 0.0102
in ethanol, 304.15 K | 0.0112
in ethanol, 305.85 K | 0.012
in ethanol, 307.25 K | 0.0127
in ethyl acetate, 278.35 K | 0.00447
in ethyl acetate, 280.05 K | 0.00488
in ethyl acetate, 281.65 K | 0.0053
in ethyl acetate, 284.75 K | 0.00619
in ethyl acetate, 286.25 K | 0.00667
in ethyl acetate, 288.15 K | 0.00731
in ethyl acetate, 290.45 K | 0.00825
in ethyl acetate, 292.95 K | 0.00939
in ethyl acetate, 296.15 K | 0.011
in ethyl acetate, 299.05 K | 0.0125
in ethyl acetate, 302.95 K | 0.0153
in ethyl acetate, 305.35 K | 0.0167
in ethyl acetate, 306.45 K | 0.0176
in ethyl acetate, 307.45 K | 0.0184
in methanol, 277.25 K | 0.00235
in methanol, 281.35 K | 0.00277
in methanol, 282.75 K | 0.00296
in methanol, 284.35 K | 0.00319
in methanol, 288.85 K | 0.00392
in methanol, 292.75 K | 0.00468
in methanol, 296.05 K | 0.00537
in methanol, 299.25 K | 0.00607
in methanol, 303.75 K | 0.00722
in methanol, 305.35 K | 0.00768
in methanol, 306.55 K | 0.00803
in toluene, 278.75 K | 0.0191
in toluene, 281.55 K | 0.0249
in toluene, 283.25 K | 0.0293
in toluene, 287.35 K | 0.043
in toluene, 288.15 K | 0.0464
in toluene, 290.75 K | 0.059
in toluene, 292.15 K | 0.0671
in toluene, 293.75 K | 0.0776
in toluene, 295.45 K | 0.0906
in toluene, 297.75 K | 0.111
in toluene, 301.65 K | 0.158
in toluene, 305.55 K | 0.223
in water, 277.75 K | 0.000167
in water, 280.25 K | 0.000174
in water, 283.75 K | 0.000197
in water, 288.35 K | 0.000215
in water, 292.15 K | 0.000234
in water, 294.25 K | 0.000249
in water, 297.65 K | 0.000265
in water, 301.25 K | 0.000288
in water, 302.95 K | 0.000295
in water, 304.25 K | 0.000308
in water, 305.85 K | 0.00032
in water, 308.75 K | 0.000332
in water, 309.15 K | 0.00034
